From patent US20230135729A1, “COMPOUND WITH ANTI-SPORE ACTIVITY AND PHARMACEUTICAL COMPOSITION THEREOF” (priority 2020, published 2023)
≈ marks a conversion by molar mass, not a printed value. Like-named read-outs stand apart in the source and are kept apart here.

How the values were obtained:
Assay type in all cases: cell-based
[1] = test system: spores of ATCC BBA1870 strain; experiment: Inhibition of germination of C. difficile spores (MIC), strain ATCC BBA1870; details: Clostridioides difficile, ATCCBBA1870STRAIN, 1 h, read-out: MIC (minimum concentration that completely inhibits spore germination)
Description: (§1) According to a method disclosed in “The Journal of Infectious Diseases. 2013; 207: 1498-504”, spores of ATCC BBA1870, ATCC 43255 and ATCC 630 strains were obtained by culture and purification, and stored at 4° C.
(§2) Spore preparation: the C. difficile spores stored at 4° C. were heat-activated for 30 min at 65° C., centrifuged at 9,400 g for 2 min, and washed three times to remove any self-germinating spores.
(§3) Control drug: three cholic acid derivatives, a compound CamSA, a compound 20β (prepared by the method of “Journal of Medicinal Chemistry. 2017, 60 (8): 3451-3471”), and a compound 12a (prepared by the method of “Journal of Medicinal Chemistry. 2018, 61, 6759-6778”), were used as control drugs.
(§4) Compound preparation: the compound of the present disclosure, and the positive control drugs CamSA, 20β, and 12a were dissolved in DMSO, to prepare a stock solution with a concentration of 10 mM (prepared for immediate use).
(§5) The detection was conducted in a 96-well cell culture plate at a constant temperature of 37° C.; a final volume of each well of the 96-well plate was […] and a buffer was the BHIS medium; 150 μl of spores and drugs were added to the well in advance, and 50 μl of 4 mg/ml sodium taurocholate was added; OD580 was detected every 1 min immediately using a microplate reader, for continuously 60 min. A germination agent control group and a non-germination group were set up; after the detection, a final OD value of each well was compared with an initial value, and compared with the germination agent group to calculate a germination rate and an inhibition rate. A formula for the germination rate was:
(§6) Inhibition rate=100%−germination rate.

[2] = test system: spores of ATCC 43255 strain; experiment: Inhibition of germination of C. difficile spores (MIC), strain ATCC 43255; details: Clostridioides difficile, ATCC43255, 1 h, read-out: MIC (minimum concentration that completely inhibits spore germination)
Description: as §1, §2, §3, §4, §5, §6

[3] = test system: spores of ATCC 630 strain; experiment: Inhibition of germination of C. difficile spores (MIC), strain ATCC 630; details: Clostridioides difficile, ATCC630, 1 h, read-out: MIC (minimum concentration that completely inhibits spore germination)
Description: as §1, §2, §3, §4, §5, §6

[4] = strain 1870, sodium taurocholate as germinant, BHIS medium, 37° C., OD580 for 60 min
[5] = strain 43255, sodium taurocholate as germinant, BHIS medium, 37° C., OD580 for 60 min
[6] = strain 630, sodium taurocholate as germinant, BHIS medium, 37° C., OD580 for 60 min

Row | Compound | MIC [1, 4] [µM] | MIC [2, 5] [µM] | MIC [3, 6] [µM] | MIC [1] [µM] | MIC [2] [µM] | MIC [3] [µM]
1 | Cc1ccc(C(C)NC(=O)C[C@@H](C)[C@H]2CC[C@H]3[C@@H]4C(=O)C[C@@H]5CC(=O)CC[C@]5(C)[C@H]4CC[C@]23C)s1 (stereo partly drawn) [Compound I-30] | 2 (≈ 0.995 µg/mL) | 2 (≈ 0.995 µg/mL) | 1 (≈ 0.498 µg/mL) | – | – | –
2 | Cc1ccsc1C(C)NC(=O)C[C@@H](C)[C@H]1CC[C@H]2[C@@H]3C(=O)C[C@@H]4CC(=O)CC[C@]4(C)[C@H]3CC[C@]12C (stereo partly drawn) [Compound I-31] | 8 (≈ 3.98 µg/mL) | 8 (≈ 3.98 µg/mL) | 8 (≈ 3.98 µg/mL) | – | – | –
3 | CC(NC(=O)C[C@@H](C)[C@H]1CC[C@H]2[C@@H]3C(=O)C[C@@H]4CC(=O)CC[C@]4(C)[C@H]3CC[C@]12C)c1ccc(Br)s1 (stereo partly drawn) [Compound I-33] | 0.5 (≈ 0.281 µg/mL) | 1 (≈ 0.563 µg/mL) | 0.5 (≈ 0.281 µg/mL) | – | – | –
4 | CC(NC(=O)C[C@@H](C)[C@H]1CC[C@H]2[C@@H]3C(=O)C[C@@H]4CC(=O)CC[C@]4(C)[C@H]3CC[C@]12C)c1ccc(S(=O)(=O)O)s1 (stereo partly drawn) [Compound I-34] | 64 (≈ 36.1 µg/mL) | 64 (≈ 36.1 µg/mL) | 64 (≈ 36.1 µg/mL) | – | – | –
5 | CC[C@H](NC(=O)C[C@@H](C)[C@H]1CC[C@H]2[C@@H]3C(=O)C[C@@H]4CC(=O)CC[C@]4(C)[C@H]3CC[C@]12C)c1cccs1 [Compound I-36] | 8 (≈ 3.98 µg/mL) | 8 (≈ 3.98 µg/mL) | 4 (≈ 1.99 µg/mL) | – | – | –
6 | CCC(NC(=O)C[C@@H](C)[C@H]1CC[C@H]2[C@@H]3C(=O)C[C@@H]4CC(=O)CC[C@]4(C)[C@H]3CC[C@]12C)c1ccc(Br)s1 (stereo partly drawn) [Compound I-38] | 2 (≈ 1.15 µg/mL) | 2 (≈ 1.15 µg/mL) | 1 (≈ 0.577 µg/mL) | – | – | –
7 | CCC(NC(=O)C[C@@H](C)[C@H]1CC[C@H]2[C@@H]3C(=O)C[C@@H]4CC(=O)CC[C@]4(C)[C@H]3CC[C@]12C)c1ccc(S(=O)(=O)O)s1 (stereo partly drawn) [Compound I-39] | 1 (≈ 0.578 µg/mL) | 0.5 (≈ 0.289 µg/mL) | 0.5 (≈ 0.289 µg/mL) | – | – | –
8 | CC(C)C(NC(=O)C[C@@H](C)[C@H]1CC[C@H]2[C@@H]3C(=O)C[C@@H]4CC(=O)CC[C@]4(C)[C@H]3CC[C@]12C)c1cccs1 (stereo partly drawn) [Compound I-40] | 4 (≈ 2.05 µg/mL) | 2 (≈ 1.02 µg/mL) | 2 (≈ 1.02 µg/mL) | – | – | –
9 | CCCCC(NC(=O)C[C@@H](C)[C@H]1CC[C@H]2[C@@H]3C(=O)C[C@@H]4CC(=O)CC[C@]4(C)[C@H]3CC[C@]12C)c1cccs1 (stereo partly drawn) [Compound I-42] | 2 (≈ 1.05 µg/mL) | 1 (≈ 0.526 µg/mL) | 1 (≈ 0.526 µg/mL) | – | – | –
10 | C[C@H](CC(=O)NC(c1cccs1)C(C)(C)C)[C@H]1CC[C@H]2[C@@H]3C(=O)C[C@@H]4CC(=O)CC[C@]4(C)[C@H]3CC[C@]12C (stereo partly drawn) [Compound I-43] | 64 (≈ 33.7 µg/mL) | 32 (≈ 16.8 µg/mL) | 32 (≈ 16.8 µg/mL) | – | – | –
11 | CCCCCC(NC(=O)C[C@@H](C)[C@H]1CC[C@H]2[C@@H]3C(=O)C[C@@H]4CC(=O)CC[C@]4(C)[C@H]3CC[C@]12C)c1cccs1 (stereo partly drawn) [Compound I-44] | 256 (≈ 138 µg/mL) | > 256 | > 256 | – | – | –
12 | CCCCCCCC(NC(=O)C[C@@H](C)[C@H]1CC[C@H]2[C@@H]3C(=O)C[C@@H]4CC(=O)CC[C@]4(C)[C@H]3CC[C@]12C)c1cccs1 (stereo partly drawn) [Compound I-45] | > 256 | > 256 | > 256 | – | – | –
13 | CCCCCCCCCCCC(NC(=O)C[C@@H](C)[C@H]1CC[C@H]2[C@@H]3C(=O)C[C@@H]4CC(=O)CC[C@]4(C)[C@H]3CC[C@]12C)c1cccs1 (stereo partly drawn) [Compound I-46] | > 256 | > 256 | > 256 | – | – | –
14 | CCCCCCCCCCCCCC(NC(=O)C[C@@H](C)[C@H]1CC[C@H]2[C@@H]3C(=O)C[C@@H]4CC(=O)CC[C@]4(C)[C@H]3CC[C@]12C)c1cccs1 (stereo partly drawn) [Compound I-47] | > 256 | > 256 | > 256 | – | – | –
15 | C[C@H](CC(=O)N[C@H](c1cccs1)C1CC1)[C@H]1CC[C@H]2[C@@H]3C(=O)C[C@@H]4CC(=O)CC[C@]4(C)[C@H]3CC[C@]12C [Compound I-49] | > 256 | > 256 | > 256 | – | – | –
16 | C[C@H](CC(=O)NC(c1ccc(S(=O)(=O)O)s1)C1CC1)[C@H]1CC[C@H]2[C@@H]3C(=O)C[C@@H]4CC(=O)CC[C@]4(C)[C@H]3CC[C@]12C (stereo partly drawn) [Compound I-52] | 16 (≈ 9.44 µg/mL) | 16 (≈ 9.44 µg/mL) | 16 (≈ 9.44 µg/mL) | – | – | –
17 | C[C@H](CC(=O)NC(c1cccs1)C1CCCC1)[C@H]1CC[C@H]2[C@@H]3C(=O)C[C@@H]4CC(=O)CC[C@]4(C)[C@H]3CC[C@]12C (stereo partly drawn) [Compound I-53] | 32 (≈ 17.2 µg/mL) | 32 (≈ 17.2 µg/mL) | 32 (≈ 17.2 µg/mL) | – | – | –
18 | C[C@H](CC(=O)NC(c1cccs1)C1CCCCC1)[C@H]1CC[C@H]2[C@@H]3C(=O)C[C@@H]4CC(=O)CC[C@]4(C)[C@H]3CC[C@]12C (stereo partly drawn) [Compound I-54] | > 256 | > 256 | 256 (≈ 141 µg/mL) | – | – | –
19 | C[C@H](CC(=O)NC(c1ccccc1)c1cccs1)[C@H]1CC[C@H]2[C@@H]3C(=O)C[C@@H]4CC(=O)CC[C@]4(C)[C@H]3CC[C@]12C (stereo partly drawn) [Compound I-55] | 64 (≈ 34.9 µg/mL) | 32 (≈ 17.5 µg/mL) | 32 (≈ 17.5 µg/mL) | – | – | –
20 | C[C@H](CC(=O)NC(c1cccs1)c1cccs1)[C@H]1CC[C@H]2[C@@H]3C(=O)C[C@@H]4CC(=O)CC[C@]4(C)[C@H]3CC[C@]12C [Compound I-56] | 16 (≈ 8.83 µg/mL) | 16 (≈ 8.83 µg/mL) | 16 (≈ 8.83 µg/mL) | – | – | –
21 | C[C@H](CC(=O)NC(c1cccs1)C1CCC1)[C@H]1CC[C@H]2[C@@H]3C(=O)C[C@@H]4CC(=O)CC[C@]4(C)[C@H]3CC[C@]12C (stereo partly drawn) [Compound I-57] | 32 (≈ 16.8 µg/mL) | 32 (≈ 16.8 µg/mL) | 16 (≈ 8.38 µg/mL) | – | – | –
22 | CCC(NC(=O)C[C@@H](C)[C@H]1CC[C@H]2[C@@H]3C(=O)C[C@@H]4CC(=O)CC[C@]4(C)[C@H]3CC[C@]12C)c1ccccc1 (stereo partly drawn) [Compound I-58] | – | – | – | 8 (≈ 3.93 µg/mL) | 4 (≈ 1.97 µg/mL) | 4 (≈ 1.97 µg/mL)
23 | CC[C@H](NC(=O)C[C@@H](C)[C@H]1CC[C@H]2[C@@H]3C(=O)C[C@@H]4CC(=O)CC[C@]4(C)[C@H]3CC[C@]12C)c1ccccc1 [Compound I-59] | – | – | – | 128 (≈ 62.9 µg/mL) | 64 (≈ 31.5 µg/mL) | 64 (≈ 31.5 µg/mL)
24 | CC[C@@H](NC(=O)C[C@@H](C)[C@H]1CC[C@H]2[C@@H]3C(=O)C[C@@H]4CC(=O)CC[C@]4(C)[C@H]3CC[C@]12C)c1ccccc1 [Compound I-60] | – | – | – | 2 (≈ 0.983 µg/mL) | 2 (≈ 0.983 µg/mL) | 2 (≈ 0.983 µg/mL)
25 | C[C@H](CC(=O)NC(c1ccccc1)c1ccccc1)[C@H]1CC[C@H]2[C@@H]3C(=O)C[C@@H]4CC(=O)CC[C@]4(C)[C@H]3CC[C@]12C [Compound I-61] | 128 (≈ 69.1 µg/mL) | 128 (≈ 69.1 µg/mL) | 128 (≈ 69.1 µg/mL) | – | – | –
26 | C[C@H](CC(=O)NC(Cc1ccccc1)c1ccccc1)[C@H]1CC[C@H]2[C@@H]3C(=O)C[C@@H]4CC(=O)CC[C@]4(C)[C@H]3CC[C@]12C (stereo partly drawn) [Compound I-62] | – | – | – | 256 (≈ 142 µg/mL) | 128 (≈ 70.9 µg/mL) | 128 (≈ 70.9 µg/mL)
27 | C[C@H](CC(=O)NC(C(=O)O)c1ccccc1)[C@H]1CC[C@H]2[C@@H]3C(=O)C[C@@H]4CC(=O)CC[C@]4(C)[C@H]3CC[C@]12C (stereo partly drawn) [Compound I-63] | > 256 | 256 (≈ 130 µg/mL) | 256 (≈ 130 µg/mL) | – | – | –
28 | C[C@H](CC(=O)NC(CC(=O)O)c1ccccc1)[C@H]1CC[C@H]2[C@@H]3C(=O)C[C@@H]4CC(=O)CC[C@]4(C)[C@H]3CC[C@]12C (stereo partly drawn) [Compound I-64] | > 256 | > 256 | > 256 | – | – | –
29 | C[C@H](CC(=O)NCc1ccccn1)[C@H]1CC[C@H]2[C@@H]3C(=O)C[C@@H]4CC(=O)CC[C@]4(C)[C@H]3CC[C@]12C [Compound I-65] | 128 (≈ 59.5 µg/mL) | 128 (≈ 59.5 µg/mL) | 128 (≈ 59.5 µg/mL) | – | – | –
30 | CC(C)[C@@H](NC(=O)C[C@@H](C)[C@H]1CC[C@H]2[C@@H]3C(=O)C[C@@H]4CC(=O)CC[C@]4(C)[C@H]3CC[C@]12C)c1cccs1 [Compound I-66] | 0.25 (≈ 0.128 µg/mL) | 0.25 (≈ 0.128 µg/mL) | 0.25 (≈ 0.128 µg/mL) | – | – | –
